Measured values published in patent publication US20120135094A1, “OREGANO AND MINT ANTI-INFLAMMATORY COMPOSITIONS AND METHODS” (RUTGERS, THE STATE UNIVERSITY OF NEW JERSEY, priority 2009, published 2012).

How the values were obtained:
Format in all cases: cell-based, murine
[1] = tested on: COX-2 protein in RAW 264.7 cells; assay: Western Blotting of LPS-induced COX-2 protein level; conditions: test compounds 10 and 20 μg/mL, 24 h
Experimental: (§1) FIG. 5 illustrates effects of rosmarinic acid (RosA), oleanolic acid (OA), ursolic acid (UA) and indomethacin on LPS-induced iNOS and COX-2 protein levels in RAW 264.7 cells. The cells were treated with test compounds (10 and 20 μg/mL) for 24 h. Equal amounts of total proteins (50 μg) were subjected to 10% SDS-PAGE. The expression of iNOS, COX-2 and β-actin protein was detected by Western Blot using specific antibodies. Quantification of iNOS and COX-2 protein expression was performed by densitometric analysis of the immunoblot. The values below the figure represent the relative intensity in protein expression of the bands normalized to β-actin.
(§2) RAW 264.7 cells, derived from murine macrophages, were procured from the American Type Culture Collection (Rockville, Md.). The cells were cultured in RPMI-1640 (without phenol red) supplemented with 10% endotoxin-free, heat-inactivated fetal calf serum (GIBCO, Grand Island, N.Y.), 100 units/mL penicillin, and […] streptomycin. When the RAW 264.7 cells reached a density of 2-3×10^6 cells/mL, they were activated by incubation in the medium containing E. coli LPS (lipopolysaccharide, 100 ng/mL). Various concentrations of test compounds dissolved in DMSO (dimethylsulfoxide) were combined together with LPS. The cells were treated with 0.05% DMSO as vehicle control.
(§3) The total proteins, isolated from cells after treatment with test compounds for 24 h, were extracted via addition of 200 μL of gold lysis buffer (50 mM Tris-HCl, pH 7.4; 1 mM NaF; 150 mM NaCl; 1 mM EGTA; 1 mM phenylmethanesulfonyl fluoride; 1% NP-40; and 10 μg/mL leupeptin) to the cell pellets on ice for 30 min, followed by centrifugation for 30 min at 4° C. The cytosolic fraction (supernatant) proteins were measured by Bio-Rad Protein Assay (Bio-Rad Laboratories, Munich, Germany). The samples (50 μg of proteins) were mixed with 5-fold sample buffer containing 0.3 M Tris-HCl (pH 6.8), 25% 2-mercaptoethanol, 12% sodium dodecyl sulfate (SDS), 25 mM EDTA, 20% glycerol, and 0.1% bromophenol blue. […]

[2] = tested on: iNOS protein in RAW 264.7 cells; assay: Western Blotting of LPS-induced iNOS protein level; conditions: test compounds 10 and 20 μg/mL, 24 h
Experimental: as §1, §2, §3

[3] = tested on: LPS-induced nitrite production in RAW 264.7 macrophages; assay: LPS-induced nitrite production assay (Griess reaction); conditions: concentration range of 10-100 μg/mL, dose-dependently; LPS 100 ng/mL, 24 h
Experimental: FIG. 4 illustrates anti-inflammatory effect of rosmarinic acid (RosA), ursolic acid (UA) and oleanolic acid (OA) on LPS-induced nitrite production in RAW 264.7 macrophages. The cells were treated with 100 ng/mL of LPS only or with different concentrations of test compounds for 24 h. At the end of incubation time, 100 μL of the culture medium was collected for nitrite assay. The values are expressed as means±standard error of triplicate tests.
as §2, with “Various concentrations of test compounds dissolved in DMSO (dimethylsulfoxide) were combined together with LPS. The cells were treated with 0.05% DMSO as vehicle control.” left out
The RAW 264.7 cells were treated with various compounds and LPS or LPS only. The supernatants were harvested and the amount of nitrite, an indicator of NO synthesis, was measured using the Griess reaction. […] After incubation at room temperature for 10 min, absorbance at 570 nm was measured with the ELISA reader (Thermo Labsystems, Multiskan Ascent, Finland).

Compound	COX-2 protein expression [1]	iNOS protein expression [2]	suppression of NO generation [3]
CC1(C)CC[C@]2(C(=O)O)CC[C@]3(C)C(=CC[C@@H]4[C@@]5(C)CC[C@H](O)C(C)(C)[C@@H]5CC[C@]43C)[C@@H]2C1 [oleanolic acid]	suppressed COX-2 protein expression	reduced expression of iNOS protein	–
O=C(/C=C/c1ccc(O)c(O)c1)O[C@H](Cc1ccc(O)c(O)c1)C(=O)O [rosmarinic acid]	suppressed COX-2 protein expression	reduced expression of iNOS protein	19-100%
C[C@H]1[C@H](C)CC[C@]2(C(=O)O)CC[C@]3(C)C(=CC[C@@H]4[C@@]5(C)CC[C@H](O)C(C)(C)[C@@H]5CC[C@]43C)[C@H]12 [ursolic acid]	suppressed COX-2 protein expression	reduced expression of iNOS protein	–
